The values below come from patent publication US7253187B2, “Heterocyclic inhibitors of ERK2 and uses thereof” (Vertex Pharmaceuticals Incorporated, priority 2001, dated 2007).

Molecules are shown by their SMILES.

Holding throughout (type): biochemical
One experiment has as its target T1, GSK-3β (AA 1–420) (Homo sapiens, UniProt P49841).
T1 construct: GSK-3β (AA 1–420)
Briefly: GSK-3 inhibition assay (coupled enzyme system). The note with it: read-out: GSK3 Inhibitory Activity (Ki class). As for the experimental part:
Final substrate concentrations in the assay were 20 μM ATP (Sigma Chemicals, St Louis, Mo.) and 300 μM peptide (HSSPHQS(PO3H2)EDEEE, American Peptide, Sunnyvale, Calif.). Reactions were carried out at 30° C. and 20 nM GSK-3β. Final concentrations of the components of the coupled enzyme system were 2.5 mM phosphoenolpyruvate, 300 μM NADH, 30 μg/ml pyruvate kinase and 10 μg/ml lactate dehydrogenase.
An assay stock buffer solution was prepared containing all of the reagents listed above with the exception of ATP and the test compound of interest. The assay stock buffer'solution (175 μl) was incubated in a 96 well plate with 5 μl of the test compound of interest at final concentrations spanning 0.002 μM to 30 μM at 30° C. for 10 min. […] The reaction was initiated by the addition of 20 μl of ATP (final concentration 20 μM). Rates of reaction were obtained using a Molecular Devices Spectramax plate reader (Sunnyvale, Calif.) over 10 min at 30° C. The Ki values were determined from the rate data as a function of inhibitor concentration.
The compound numbers correspond to the compound numbers in Table 1.

A further experiment addresses CDK-2/Cyclin A (Homo sapiens, UniProt P24941). The experiment is described as follows: CDK-2 inhibition assay (coupled enzyme assay). As to the method:
To an assay stock buffer solution containing 0.1M HEPES 7.5, 10 mM MgCl2, 1 mM DTT, 25 mM NaCl, 2.5 mM phosphoenolpyruvate, […], […], […], […], and 100 μM peptide ([…], American Peptide, Sunnyvale, Calif.) was added a DMSO solution of a compound of the present invention to a final concentration of 30 μM.
The Ki values were determined from the rate data as a function of inhibitor concentration.

The target in another experiment is ERK2 (Homo sapiens, UniProt P28482). The experiment is described as follows: ERK2 inhibition assay (spectrophotometric coupled-enzyme assay). The conditions noted are these: read-out: ERK2 Inhibitory Activity (Ki class D-F). As to the method: The IC50 was evaluated from the rate data as a function of inhibitor concentration. […] The compound numbers correspond to the compound numbers in Table 1.

In another experiment the target is T2, Aurora-2 (Homo sapiens, UniProt O14965).
T2 sequence (O14965 1-403): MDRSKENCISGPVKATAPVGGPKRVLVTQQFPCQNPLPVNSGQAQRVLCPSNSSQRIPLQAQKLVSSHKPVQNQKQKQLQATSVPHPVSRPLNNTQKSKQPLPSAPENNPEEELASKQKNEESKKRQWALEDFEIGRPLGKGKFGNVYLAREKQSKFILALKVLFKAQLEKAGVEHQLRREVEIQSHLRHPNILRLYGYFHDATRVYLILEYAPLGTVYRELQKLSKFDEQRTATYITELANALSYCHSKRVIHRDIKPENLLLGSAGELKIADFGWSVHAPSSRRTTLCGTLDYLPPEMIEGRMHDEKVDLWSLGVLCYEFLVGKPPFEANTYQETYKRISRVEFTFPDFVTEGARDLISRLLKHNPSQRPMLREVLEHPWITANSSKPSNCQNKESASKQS
The experiment is described as follows: Aurora-2 inhibition assay (coupled enzyme assay). As to the method: Compounds were screened in the following manner for their ability to inhibit Aurora-2 using a standard coupled enzyme assay (Fox et al (1998) Protein Sci 7, 2249).
To an assay stock buffer solution containing 0.1M HEPES 7.5, 10 mM MgCl2, 1 mM DTT, 25 mM NaCl, 2.5 mM phosphoenolpyruvate, […], 30 mg/ml pyruvate kinase, 10 mg/ml lactate dehydrogenase, […], and 800 μM peptide (LRRASLG, American Peptide, Sunnyvale, Calif.) was added a DMSO solution of a compound of the present invention to a final concentration of 30 μM. The resulting mixture was incubated at 30° C. for 10 min. The reaction was initiated by the addition of 10 μL of Aurora-2 stock solution to give a final concentration of 70 nM in the assay. The rates of reaction were obtained by monitoring absorbance at 340 nm over a 5 minute read time at 30° C. using a BioRad Ultramark plate reader (Hercules, Calif.). The Ki values were determined from the rate data as a function of inhibitor concentration.

A further experiment deals with ERK1 (Homo sapiens, UniProt P27361). The experiment is described as follows: ERK1 inhibition assay (spectrophotometric coupled-enzyme assay). The note with it: read-out: inhibit ERK1 with an activity (Ki). As to the method: Compounds were assayed for the inhibition of ERK1 by a spectrophotometric coupled-enzyme assay (Fox et al (1998) Protein Sci 7, 2249). In this assay, a fixed concentration of activated ERK1 (20 nM) was incubated with various concentrations of the compound in DMSO (2.0%) for 10 min. at 30° C. in 0.1 M HEPES buffer, pH 7.6, containing 10 mM MgCl2, 2.5 mM-phosphoenolpyruvate, 200 μM NADH, 30 μg/mL pyruvate kinase, 10 μg/mL lactate dehydrogenase, and 150 μM erktide peptide. The reaction was initiated by the addition of 140 μM ATP (20 μL). The rate of decrease of absorbance at 340 nm was monitored. The Ki was evaluated from the rate data as a function of inhibitor concentration.
ERK1, sequence (P27361 whole entry, species assumed): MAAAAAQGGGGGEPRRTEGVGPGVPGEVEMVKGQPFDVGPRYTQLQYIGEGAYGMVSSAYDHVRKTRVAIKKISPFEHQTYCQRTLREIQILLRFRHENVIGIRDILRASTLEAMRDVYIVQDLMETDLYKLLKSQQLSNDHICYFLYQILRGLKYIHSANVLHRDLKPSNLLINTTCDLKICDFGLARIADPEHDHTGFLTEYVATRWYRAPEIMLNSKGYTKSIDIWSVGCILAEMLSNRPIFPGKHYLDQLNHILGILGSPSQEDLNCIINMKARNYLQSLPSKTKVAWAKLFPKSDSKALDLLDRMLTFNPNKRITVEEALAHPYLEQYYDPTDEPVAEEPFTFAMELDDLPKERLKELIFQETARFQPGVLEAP

T1 sequence (P49841 whole entry, species assumed, the tested form may be a part): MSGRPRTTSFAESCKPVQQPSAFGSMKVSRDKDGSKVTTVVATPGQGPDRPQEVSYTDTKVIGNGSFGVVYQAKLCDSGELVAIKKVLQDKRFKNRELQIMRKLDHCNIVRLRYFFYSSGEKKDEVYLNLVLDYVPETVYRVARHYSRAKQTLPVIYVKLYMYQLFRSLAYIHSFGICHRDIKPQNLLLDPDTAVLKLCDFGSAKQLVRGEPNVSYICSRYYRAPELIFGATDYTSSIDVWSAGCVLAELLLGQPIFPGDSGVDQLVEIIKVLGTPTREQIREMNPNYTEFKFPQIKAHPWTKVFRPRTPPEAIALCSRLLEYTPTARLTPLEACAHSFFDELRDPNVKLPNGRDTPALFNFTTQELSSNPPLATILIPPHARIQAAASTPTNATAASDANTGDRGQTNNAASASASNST
ERK2, sequence (P28482 whole entry): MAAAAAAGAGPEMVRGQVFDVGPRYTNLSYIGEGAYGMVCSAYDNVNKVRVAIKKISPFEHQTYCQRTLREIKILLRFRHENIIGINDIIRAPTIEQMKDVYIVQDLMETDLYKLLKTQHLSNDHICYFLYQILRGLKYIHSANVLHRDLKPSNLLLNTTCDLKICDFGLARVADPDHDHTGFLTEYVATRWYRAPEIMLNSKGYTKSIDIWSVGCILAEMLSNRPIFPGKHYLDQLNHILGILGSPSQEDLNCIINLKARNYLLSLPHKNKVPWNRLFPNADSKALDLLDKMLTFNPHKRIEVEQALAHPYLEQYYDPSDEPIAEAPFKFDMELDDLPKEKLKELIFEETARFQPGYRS

For the molecule `Cc1cnc(Nc2cccc(F)c2)nc1-c1c[nH]c(C(=O)NC(CO)c2cccc(C(F)(F)F)c2)c1` (stereo not shown) [III-a-148, 4-[2-(3-Fluoro-phenylamino)-5-methyl-pyrimidin-4-yl]-1H-pyrrole-2-carboxylic acid [2-hydroxy-1-(3-trifluoromethyl-phenyl)-ethyl]-amide], the inhibition constant Ki on GSK-3β (AA 1–420) was less than 100 nM; on CDK-2/Cyclin A it was 100 to 1000 nM; at ERK2 it was less than 100 nM.

For `Cc1cnc(N[C@H](CO)c2ccccc2)nc1-c1c[nH]c(C(=O)N[C@H](CO)c2ccccc2)c1` [III-a-155, 4-[2-(2-Hydroxy-1-(S)-phenyl-ethylamino)-5-methyl-pyrimidin-4-yl]-1H-pyrrole-2-carboxylic acid (2-hydroxy-1-(S)-phenyl-ethyl)-amide], the results for the Ki on GSK-3β (AA 1–420), on CDK-2/Cyclin A and on ERK2 were 100 to 1000 nM, 100 to 1000 nM and less than 100 nM, respectively.

Turning to `Cc1cnc(Nc2ccccc2)nc1-c1c[nH]c(C(=O)NC(CO)c2cccc(C(F)(F)F)c2)c1` (stereo not shown) [III-a-146, 4-(5-Methyl-2-phenylamino-pyrimidin-4-yl)-1H-pyrrole-2-carboxylic acid [2-hydroxy-1-(3-trifluoromethyl-phenyl)-ethyl]-amide], the inhibitory constant (Ki) on GSK-3β (AA 1–420) and on CDK-2/Cyclin A was 100 to 1000 nM in each case.

Turning to `Cc1cnc(Nc2ccccc2)nc1-c1c[nH]c(C(=O)NC(CO)c2ccccc2)c1` (stereo not shown) [III-a-116, 4-(5-Methyl-2-phenylamino-pyrimidin-4-yl)-1H-pyrrole-2-carboxylic acid (2-hydroxy-1-phenyl-ethyl)-amide], the “found to inhibit Aurora-2” value on Aurora-2 is “found to inhibit Aurora-2”.

In the case of `Cc1cnc(NC2CC2)nc1-c1c[nH]c(C(=O)N[C@H](CO)c2ccccc2)c1` [III-a-162, 4-(2-Cyclopropylamino-5-methyl-pyrimidin-4-yl)-1H-pyrrole-2-carboxylic acid (2-hydroxy-1-(S)-phenyl-ethyl)-amide], the Ki is less than 100 nM at GSK-3β (AA 1–420), 100 to 1000 nM on CDK-2/Cyclin A and less than 100 nM at ERK2.

Turning to `Cc1cnc(Nc2cccc(C(F)(F)F)c2)nc1-c1c[nH]c(C(=O)NC(CO)c2ccccc2)c1` (stereo not shown) [III-a-149, 4-[5-Methyl-2-(3-trifluoromethyl-phenylamino)-pyrimidin-4-yl]-1H-pyrrole-2-carboxylic acid (2-hydroxy-1-phenyl-ethyl)-amide], the Ki on GSK-3β (AA 1–420), on CDK-2/Cyclin A and at ERK2 was less than 100 nM in each case.

Consider `Cc1cnc(Nc2ccc(OCc3ccccc3)cc2)nc1-c1c[nH]c(C(=O)NC(CO)c2ccccc2)c1` (stereo not shown) [III-a-152, 4-[2-(4-Benzyloxy-phenylamino)-5-methyl-pyrimidin-4-yl]-1H-pyrrole-2-carboxylic acid (2-hydroxy-1-phenyl-ethyl)-amide], for which the Ki on GSK-3β (AA 1–420), on CDK-2/Cyclin A and at ERK2 was less than 100 nM each time.

In the case of `Cc1cnc(Nc2cccc(O)c2)nc1-c1c[nH]c(C(=O)NC(CO)c2ccccc2)c1` (stereo not shown) [III-a-138, 4-[2-(3-Hydroxy-phenylamino)-5-methyl-pyrimidin-4-yl]-1H-pyrrole-2-carboxylic acid (2-hydroxy-1-phenyl-ethyl)-amide], on GSK-3β (AA 1–420), the Ki was less than 100 nM. In addition, the “found to inhibit Aurora-2” value at Aurora-2 is “found to inhibit Aurora-2”.

For `COc1ccccc1Nc1ncc(C)c(-c2c[nH]c(C(=O)NC(CO)c3ccccc3)c2)n1` (stereo not shown) [III-a-156, 4-[2-(2-Methoxy-phenylamino)-5-methyl-pyrimidin-4-yl]-1H-pyrrole-2-carboxylic acid (2-hydroxy-1-phenyl-ethyl)-amide], the figures for the Ki at GSK-3β (AA 1–420) and at CDK-2/Cyclin A were 100 to 1000 nM and 1000 to 20000 nM, respectively.

Consider `CCNc1ncc(C)c(-c2c[nH]c(C(=O)N[C@H](CO)c3ccccc3)c2)n1` [III-a-117, 4-(2-Ethylamino-5-methyl-pyrimidin-4-yl)-1H-pyrrole-2-carboxylic acid (2-hydroxy-1-phenyl-ethyl)-amide], for which the Ki was less than 100 nM on GSK-3β (AA 1–420), 1000 to 20000 nM on CDK-2/Cyclin A and less than 100 nM on ERK2. Also, the “found to inhibit Aurora-2” value on Aurora-2 is reported as “found to inhibit Aurora-2”.

For the molecule `Cc1cnc(NC2(CO)CC2)nc1-c1c[nH]c(C(=O)NC(CO)c2ccccc2)c1` (stereo not shown) [III-a-174, 4-[2-(1-Hydroxymethyl-cyclopropylamino)-5-methyl-pyrimidin-4-yl]-1H-pyrrole-2-carboxylic acid (2-hydroxy-1-phenyl-ethyl)-amide], the Ki on GSK-3β (AA 1–420) was less than 100 nM; on CDK-2/Cyclin A it was 100 to 1000 nM; at ERK2, less than 100 nM.

Turning to `Cc1cnc(NC2CCC(O)CC2)nc1-c1c[nH]c(C(=O)NC(CO)c2ccccc2)c1` (stereo not shown) [III-a-142, 4-[2-(4-Hydroxy-cyclohexylamino)-5-methyl-pyrimidin-4-yl]-1H-pyrrole-2-carboxylic acid (2-hydroxy-1-phenyl-ethyl)-amide], the inhibitory constant (Ki) on GSK-3β (AA 1–420), on CDK-2/Cyclin A and on ERK2 was less than 100 nM throughout.

On to `Cc1cnc(Nc2ccc(S(N)(=O)=O)cc2)nc1-c1c[nH]c(C(=O)NC(CO)c2ccccc2)c1` (stereo not shown) [III-a-140, 4-[5-Methyl-2-(4-sulfamoyl-phenylamino)-pyrimidin-4-yl]-1H-pyrrole-2-carboxylic acid (2-hydroxy-1-phenyl-ethyl)-amide], for which the Ki at GSK-3β (AA 1–420) and at ERK2 was less than 100 nM each time. The “found to inhibit Aurora-2” value on Aurora-2 is on record as “found to inhibit Aurora-2”.

For `Cc1cnc(NCc2ccccc2)nc1-c1c[nH]c(C(=O)NC(CO)c2ccccc2)c1` (stereo not shown) [III-a-150, 4-(2-Benzylamino-5-methyl-pyrimidin-4-yl)-1H-pyrrole-2-carboxylic acid (2-hydroxy-1-phenyl-ethyl)-amide], the results for the Ki at GSK-3β (AA 1–420), on CDK-2/Cyclin A and on ERK2 were 100 to 1000 nM, 100 to 1000 nM and less than 100 nM, respectively.

In the case of `Cc1cnc(NCC2CC2)nc1-c1c[nH]c(C(=O)NC(CO)c2ccccc2)c1` (stereo not shown) [III-a-159, 4-[2-(Cyclopropylmethyl-amino)-5-methyl-pyrimidin-4-yl]-1H-pyrrole-2-carboxylic acid (2-hydroxy-1-phenyl-ethyl)-amide], the Ki at GSK-3β (AA 1–420) was less than 100 nM; at CDK-2/Cyclin A, 1000 to 20000 nM; at ERK2 it was less than 100 nM.

With `Cc1cnc(Nc2cccc(OCc3ccccc3)c2)nc1-c1c[nH]c(C(=O)NC(CO)c2ccccc2)c1` (stereo not shown) [III-a-141, 4-[2-(3-Benzyloxy-phenylamino)-5-methyl-pyrimidin-4-yl]-1H-pyrrole-2-carboxylic acid (2-hydroxy-1-phenyl-ethyl)-amide], the inhibition constant Ki at GSK-3β (AA 1–420) and on ERK2 was less than 100 nM each time. For the same molecule, the “found to inhibit Aurora-2” value at Aurora-2 is “found to inhibit Aurora-2”.

As to `Cc1cnc(NC2CC2)nc1-c1c[nH]c(C(=O)NC(CO)c2cccc(Cl)c2)c1` (stereo not shown) [III-a-204, 4-(2-Cyclopropylamino-5-methyl-pyrimidin-4-yl)-1H-pyrrole-2-carboxylic acid [1-(3-chloro-phenyl)-2-hydroxy-ethyl]-amide], the Ki on ERK1 and on ERK2 was less than 100 nM each time.
